# Starred links: 1 amine or outer side, 2 acyl side, 3 side chain; linkers in the order of their positions; H or OH if unused. Positions of bridges follow the written chain, without caps; N, C: chain ends. Residues, ends and D or L forms follow the SMILES beside them. *: point of attachment. C20 diacid = O=C(O)CCCCCCCCCCCCCCCCCCC(=O)*; γGlu = O=C(O)[C@H](CCC(=O)[*:2])N[*:1]
# Assay: Assay (III) ThT fibrillation assay for physical stability
# Type: physicochemical
# Conditions: for Th T pH 4.0 lag time (h): 37° C., orbital shaking 960 rpm; for ThT pH 4.0 lag time: Table 9
# Procedure, shortened: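 Freshly prepared samples, pH adjusted with NaOH and HClO4 or HCl, received ThT at 1 μM final and were incubated at 37° C with orbital shaking at 960 rpm. Fluorescence (ex 444 nm, em 485 nm) was read every 20 minutes; […], with polypeptide concentration by reverse HPLC before and after.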
SMILES,Th T pH 4.0 lag time (h),ThT pH 4.0 lag time
"CC[C@H](C)[C@H](NC(=O)[C@@H]1CCCN1C(=O)CNC(=O)[C@H](Cc1ccccc1)NC(=O)[C@H](CC(N)=O)NC(=O)[C@@H](NC(=O)[C@H](CO)NC(=O)[C@H](CO)NC(=O)[C@H](Cc1c[nH]cn1)NC(=O)[C@H](Cc1c[nH]cn1)NC(=O)[C@H](CC(C)C)NC(=O)[C@H](Cc1ccccc1)NC(=O)[C@H](CCC(=O)O)NC(=O)[C@H](C)NC(=O)[C@H](CC(C)C)NC(=O)[C@H](CCCNC(=N)N)NC(=O)[C@H](CCC(N)=O)NC(=O)[C@@H](NC(=O)[C@H](C)NC(=O)[C@@H]1CSSC[C@H](NC(=O)[C@H](CCCCN)NC(=O)CC[C@H](NC(=O)CCCCCCCCCCCCCCCCCCC(=O)O)C(=O)O)C(=O)N[C@@H](CC(N)=O)C(=O)N[C@@H]([C@@H](C)O)C(=O)N[C@@H](C)C(=O)N[C@@H]([C@@H](C)O)C(=O)N1)[C@@H](C)O)[C@@H](C)O)C(=O)N[C@@H](CC(C)C)C(=O)N1CCC[C@H]1C(=O)N1CCC[C@H]1C(=O)N[C@H](C(=O)N[C@@H](CC(N)=O)C(=O)N[C@H](C(=O)NCC(=O)N[C@@H](CO)C(=O)N[C@@H](CC(N)=O)C(=O)N[C@H](C(=O)N1CCC[C@H]1C(N)=O)[C@@H](C)O)C(C)C)[C@@H](C)O [Example 146, N-alpha-[(S)-4-Carboxy-4-(19-carboxynonadecanoylamino)butyryl]-[Glu14, His17, Thr21, Pro37]-pramlintide] ({C20 diacid-γGlu}-KCNTATCATQRLAEFLHHSSTNFGPILPPTNVGSNTP-NH2; disulfide 2-7 (inferred); C-terminus assumed)",>45 h,>45 hr
"CC[C@H](C)[C@H](NC(=O)[C@@H]1CCCN1C(=O)CNC(=O)[C@H](Cc1ccccc1)NC(=O)[C@H](CC(N)=O)NC(=O)[C@H](CC(N)=O)NC(=O)[C@H](CO)NC(=O)[C@H](CO)NC(=O)[C@H](Cc1c[nH]cn1)NC(=O)[C@H](CCCNC(=N)N)NC(=O)[C@H](CC(C)C)NC(=O)[C@H](Cc1ccccc1)NC(=O)[C@H](CCC(=O)O)NC(=O)[C@H](C)NC(=O)[C@H](CC(C)C)NC(=O)[C@H](CCCNC(=N)N)NC(=O)[C@H](CCC(N)=O)NC(=O)[C@@H](NC(=O)[C@H](C)NC(=O)[C@@H]1CSSC[C@H](NC(=O)[C@H](CCCNC(=N)N)NC(=O)[C@H](CCC(=O)O)NC(=O)CC[C@H](NC(=O)CCCCCCCCCCCCCCCCCCC(=O)O)C(=O)O)C(=O)N[C@@H](CC(N)=O)C(=O)N[C@@H]([C@@H](C)O)C(=O)N[C@@H](C)C(=O)N[C@@H]([C@@H](C)O)C(=O)N1)[C@@H](C)O)C(=O)N[C@@H](CC(C)C)C(=O)N1CCC[C@H]1C(=O)N1CCC[C@H]1C(=O)N[C@H](C(=O)N[C@@H](CC(N)=O)C(=O)N[C@H](C(=O)NCC(=O)N[C@@H](CO)C(=O)N[C@@H](CC(N)=O)C(=O)N[C@H](C(=O)N1CCC[C@H]1C(N)=O)[C@@H](C)O)C(C)C)[C@@H](C)O [Example 156, N-alpha-[(S)-4-Carboxy-4-(19-carboxynonadecanoylamino)butyryl]-Glu-[Arg1, Glu14, Arg17, Pro37]-pramlintide] ({C20 diacid-γGlu}-ERCNTATCATQRLAEFLRHSSNNFGPILPPTNVGSNTP-NH2; disulfide 3-8)",>45 h,–
"CC[C@H](C)[C@H](NC(=O)[C@@H]1CCCN1C(=O)CNC(=O)[C@H](Cc1ccccc1)NC(=O)[C@H](CC(N)=O)NC(=O)[C@H](CCC(N)=O)NC(=O)[C@H](CO)NC(=O)[C@H](CO)NC(=O)[C@H](Cc1c[nH]cn1)NC(=O)[C@H](CCCNC(=N)N)NC(=O)[C@H](CC(C)C)NC(=O)[C@H](Cc1ccccc1)NC(=O)[C@H](CCC(=O)O)NC(=O)[C@H](C)NC(=O)[C@H](CC(C)C)NC(=O)[C@H](CCCNC(=N)N)NC(=O)[C@H](CCC(N)=O)NC(=O)[C@@H](NC(=O)[C@H](C)NC(=O)[C@@H]1CSSC[C@H](NC(=O)[C@H](CCC(=O)O)NC(=O)[C@H](CCCNC(=N)N)NC(=O)[C@H](CCC(=O)O)NC(=O)CC[C@H](NC(=O)CCCCCCCCCCCCCCCCCCC(=O)O)C(=O)O)C(=O)N[C@@H](CC(N)=O)C(=O)N[C@@H]([C@@H](C)O)C(=O)N[C@@H](C)C(=O)N[C@@H]([C@@H](C)O)C(=O)N1)[C@@H](C)O)C(=O)N[C@@H](CC(C)C)C(=O)N1CCC[C@H]1C(=O)N1CCC[C@H]1C(=O)N[C@H](C(=O)N[C@@H](CC(N)=O)C(=O)N[C@H](C(=O)NCC(=O)N[C@@H](CO)C(=O)N[C@@H](CC(N)=O)C(=O)N[C@H](C(=O)N1CCC[C@H]1C(N)=O)[C@@H](C)O)C(C)C)[C@@H](C)O [Example 161, N-alpha-[(S)-4-Carboxy-4-(19-carboxynonadecanoylamino)butyryl]-Glu-Arg-[Glu1, Glu14, Arg17, Gln21, Pro37]-pramlintide] ({C20 diacid-γGlu}-ERECNTATCATQRLAEFLRHSSQNFGPILPPTNVGSNTP-NH2; disulfide 4-9 (inferred); C-terminus assumed)",>45 h,>45 hr
"CC[C@H](C)[C@H](NC(=O)[C@@H]1CCCN1C(=O)CNC(=O)[C@H](Cc1ccccc1)NC(=O)[C@H](CC(N)=O)NC(=O)[C@H](CCC(N)=O)NC(=O)[C@H](CO)NC(=O)[C@H](CO)NC(=O)[C@H](Cc1c[nH]cn1)NC(=O)[C@H](CCCNC(=N)N)NC(=O)[C@H](CC(C)C)NC(=O)[C@H](Cc1ccccc1)NC(=O)[C@H](CCC(=O)O)NC(=O)[C@H](C)NC(=O)[C@H](CC(C)C)NC(=O)[C@H](CCCNC(=N)N)NC(=O)[C@H](CCC(N)=O)NC(=O)[C@@H](NC(=O)[C@H](C)NC(=O)[C@@H]1CSSC[C@H](NC(=O)[C@H](CCC(=O)O)NC(=O)[C@H](CCCNC(=N)N)NC(=O)[C@H](CCC(=O)O)NC(=O)CC[C@H](NC(=O)CCCCCCCCCCCCCCCCCCC(=O)O)C(=O)O)C(=O)N[C@@H](CC(N)=O)C(=O)N[C@@H]([C@@H](C)O)C(=O)N[C@@H](C)C(=O)N[C@@H]([C@@H](C)O)C(=O)N1)[C@@H](C)O)C(=O)N[C@@H](CC(C)C)C(=O)N1CCC[C@H]1C(=O)N1CCC[C@H]1C(=O)N[C@H](C(=O)N[C@@H](CC(N)=O)C(=O)N[C@H](C(=O)NCC(=O)N[C@@H](CO)C(=O)N[C@@H](CCC(N)=O)C(=O)N[C@H](C(=O)N1CCC[C@H]1C(N)=O)[C@@H](C)O)C(C)C)[C@@H](C)O [Example 162, N-alpha-[(S)-4-Carboxy-4-(19-carboxynonadecanoylamino)butyryl]-Glu-Arg-[Glu1, Glu14, Arg17, Gln21, Gln35, Pro37]-pramlintide] ({C20 diacid-γGlu}-ERECNTATCATQRLAEFLRHSSQNFGPILPPTNVGSQTP-NH2; disulfide 4-9)",>45 h,>45 hr
